Data: US20260219277A1, “NOVEL FLUORESCENT COMPOUND, AND COMPOSITION FOR DETECTING GINGIPAIN, COMPOSITION FOR DIAGNOSING PORPHYROMONAS GINGIVALIS INFECTION, OR ANTIBACTERIAL COMPOSITION AGAINST PORPHYROMONAS GINGIVALIS USING SAME” (priority 2023, published 2026)

Assays:
[1] = system: A. actinomycetecomitans conditioned medium (A.a C.M.); test: Fluorescence reaction in A. actinomycetecomitans conditioned medium; conditions: compared to the basic TSB media
Description: (§1) Specifically, P. gingivalis is known to secrete gingipain (Kgp, Rgp) and outer membrane vesicles (OMVs) (FIG. 1A). Causative bacteria of periodontitis, i.e., P. gingivalis, F. nucleatum, and A. actinomycetecomitans, were observed using a scanning electron microscope (SEM) (FIG. 1B). Afterward, the conditioned media (C.M.) were isolated (FIG. 1C).
(§2) Therefore, the present inventors screened 24 types of thiol-reactive fluorescent compound libraries using the conditioned media. Here, four types of thiol-reactive MitoTrackers were used as control materials.
(§3) After culturing living P. gingivalis, F. nucleatum, and A. actinomycetecomitans with the fluorescent compound DTC630, and MitoTracker™ Red, cell-specific fluorescence reactions were compared.

[2] = system: P. gingivalis conditioned medium (P.g. C.M.); set-up: species or system Porphyromonas gingivalis; conditions: for increase in fluorescence in the P. gingivalis conditioned medium (P.g. C.M.): compared to the basic TSB media
Description: as §1, §2, §3

[3] = system: F. nucleatum conditioned medium (F.n. C.M.); test: Fluorescence reaction in F. nucleatum conditioned medium; conditions: compared to the basic TSB media
Description: as §1, §2, §3

Rgp = Rgp (Porphyromonas gingivalis, UniProt P28784); test: Fluorescence spectrum after culture with Rgp; format: binding, P. gingivalis; conditions: 10 μM, λex=425 nm; for detection of Rgp (fluorescence compared to PBS), in words: λem=450-700 nm
Chain of Rgp (P28784 228-991): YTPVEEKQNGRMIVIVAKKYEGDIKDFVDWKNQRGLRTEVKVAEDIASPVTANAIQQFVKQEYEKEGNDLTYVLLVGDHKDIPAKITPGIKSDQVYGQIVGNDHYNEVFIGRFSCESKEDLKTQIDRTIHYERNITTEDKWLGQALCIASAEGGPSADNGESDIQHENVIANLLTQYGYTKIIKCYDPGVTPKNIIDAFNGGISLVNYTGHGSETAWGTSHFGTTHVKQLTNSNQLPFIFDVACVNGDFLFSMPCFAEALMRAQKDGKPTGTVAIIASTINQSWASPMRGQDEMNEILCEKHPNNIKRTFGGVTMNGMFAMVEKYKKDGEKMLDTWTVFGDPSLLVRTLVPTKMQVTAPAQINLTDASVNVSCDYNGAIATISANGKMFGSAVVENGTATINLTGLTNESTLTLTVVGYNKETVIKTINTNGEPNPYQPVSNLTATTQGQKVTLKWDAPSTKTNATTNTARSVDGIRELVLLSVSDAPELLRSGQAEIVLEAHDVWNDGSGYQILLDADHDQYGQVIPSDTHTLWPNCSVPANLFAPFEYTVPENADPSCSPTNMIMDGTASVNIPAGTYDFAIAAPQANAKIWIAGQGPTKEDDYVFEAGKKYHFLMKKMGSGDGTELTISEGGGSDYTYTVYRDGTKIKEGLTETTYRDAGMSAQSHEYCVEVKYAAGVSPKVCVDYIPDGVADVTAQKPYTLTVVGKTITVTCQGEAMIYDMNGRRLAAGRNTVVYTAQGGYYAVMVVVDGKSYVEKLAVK
Method: (§4) Specifically, after the gingipains (Kgp and Rgp) secreted from P. gingivalis, calpain, which is a cysteine protease, and trypsin, which is a serine protease, were cultured with fluorescent compound DTC630 (10 μM), a fluorescence spectrum was measured (λex=425 nm, λem=450-700 nm).
(§5) In addition, the degree of fluorescence reaction of fluorescent compound DTC630 (1, 3, 10, 30, and 100 μM) was measured at each concentration for Kgp, Rgp, calpain, and trypsin (final concentration: 0.3 mg/mL).

trypsin = test: Fluorescence spectrum after culture with trypsin; format: binding, human; conditions: 10 μM, λex=425 nm; for detection of trypsin (fluorescence compared to PBS), in words: λem=450-700 nm
Method: as §4, §5

Kgp = test: Fluorescence spectrum after culture with Kgp; format: binding, P. gingivalis; conditions: 10 μM, λex=425 nm; for detection of Kgp (fluorescence compared to PBS), in words: λem=450-700 nm
Method: as §4, §5

calpain = test: Fluorescence spectrum after culture with calpain; format: binding, human; conditions: 10 μM, λex=425 nm; for detection of calpain (fluorescence compared to PBS), in words: λem=450-700 nm
Method: as §4, §5

SMILES | increase in fluorescence in the A. actinomycetecomitans conditioned medium (A.a C.M.) [1] [fold] | increase in fluorescence in the P. gingivalis conditioned medium (P.g. C.M.) [2] [fold] | increase in fluorescence in the F. nucleatum conditioned medium (F.n. C.M.) [3] [fold] | detection of Rgp (fluorescence compared to PBS), in words (Rgp) | selectivity of fluorescence reaction for P. gingivalis conditioned medium (library screen heatmap) ([2]; fluorescence magnification for TSB medium, screen of 24 thiol-reactive fluorescent compounds) | detection of trypsin (fluorescence compared to PBS), in words (trypsin) | fluorescence increase for Kgp compared to PBS (Kgp) [fold] | detection of Kgp (fluorescence compared to PBS), in words (Kgp) | detection of calpain (fluorescence compared to PBS), in words (calpain) | fluorescence increase for Rgp compared to PBS (Rgp) [fold] | fluorescence increase for trypsin compared to PBS (trypsin) [fold] | fluorescence increase for calpain compared to PBS (calpain) [fold]
CN(C)c1ccc(-c2ccc(/C=C(\C#N)c3nnn[nH]3)cc2)cc1 [DTC630, (E)-3-(4′-(dimethylamino)-[1,1′-biphenyl]-4-yl)-2-(1H-tetrazol-5-yl) acrylonitrile] | 1.5±0.1 | 6.2±0.2 | 1.6±0.1 |  |  |  |  |  |  |  |  | 
CN(C)c1ccc(-c2ccc(C=C(C#N)C#N)cc2)cc1 [DTC2352, 2-((4′-(dimethylamino)-[1,1′-biphenyl]-4-yl)methylene)malononitrile] |  |  |  | no increase in fluorescence | does not exhibit a P. gingivalis-selective fluorescence reaction | no increase in fluorescence | 3±0 | no increase in fluorescence | no increase in fluorescence |  |  | 
ClCc1ccc(C2=c3cc4c5c(c3Oc3c2cc2c6c3CCCN6CCC2)CCC[N+]=5CCC4)cc1.[Cl-] [MitoTracker™ Red] | 4.5±0.1 | 5.6±0.6 | 3.2±0.1 | increase in fluorescence |  | increase in fluorescence | 145±5 | increase in fluorescence | increase in fluorescence | 126±6 | 93±9 | 163±1
